Assays:
Type in all cases: cell-based
pCH058.c/2960 = test: MAGI assay, T/F HIV-1 clone pCH058.c/2960; settings: Human immunodeficiency virus 1, MAGI
Text: (§1) We also examined the activity of GRL-compounds against Transmitter/founder (T/F) HIV-1 viruses. T/F viruses are involved in the initial infection. It is considered that T/F viruses virtually always use CCR5 rather than CXCR4 and infect T cells but not macrophages because […] of CD4 is needed to mediate virus entry for the initial transmission[20]–[24]. […] We obtained four HIV-1 T/F infectious clones. We determined the antiviral activity of GRL-117C, GRL-10007C and GRL-10018C on these HIV-1 clones using MAGI assay.
(§2) MAGI-CCR5 cells[18] were maintained in DMEM supplemented with 10% fetal calf serum (FCS: Gemini Bio-Products, West Sacramento, CA), 200 μg/ml G418, 100 μg/ml hygromycin B, and 100 μg/ml zeomycin. The Chinese hamster ovary (CHO) cells expressing CCR5[19] were maintained in Ham’s F-12 medium (GIBCO-BRL, Rockville, MD) supplemented with 10% FCS, 50 U/ml penicillin, and 50 μg/ml streptomycin in the presence of 5 μg/ml blasticidin S hydrochloride. TZM-bl cells were obtained from the NIH AIDS Reagent Program, and were cultured in DMEM with 10% FCS. Peripheral blood mononuclear cells (PBMCs) were isolated from buffy coats of HIV-1 seronegative individuals, and were activated with 10 μg/ml phytohemagglutinin (PHA) prior to use[16]. A laboratory wild-type R5-HIV-1 strain (HIV-1Ba-L)[37] was employed for drug susceptibility assays. AD101 (experimental CCR5 inhibitor) and VVC-resistant HIV clones[7],[8] were provided by Dr. John P. Moore of Cornell University for this study. The clones were propagated with activated PBMCs, and were used for the assays. […] The following reagents (plasmids) for T/F HIV-1 viruses[22],[24] were obtained through the NIH AIDS Reagent Program, Division of AIDS, NIAID, NIH: pCH040.c/2625 (cat# 11740), pCH106.c/2633 (cat# 11743), pTHRO.c/2626 (cat# 11745), and pCH058.c/2960 (cat# 11856), from Dr. John Kappes and Dr. Christina Ochsenbauer.
(§3) Antiviral assays using PHA-PBMCs (p24 assay) were conducted as previously reported[16],[38]. In brief, PHA-PBMCs (1 × 10^6/ml) were exposed to 50 TCID50 of HIV-1Ba-L or drug-resistant HIV-1 infectious clones in the presence or absence of various concentrations of drugs; 10-fold serial dilutions were performed in 96-well microculture plates. The amount of p24 antigens produced by the cells was determined on day 7 in the culture via a commercially available ELISA kit (PerkinElmer). The p24 production level in drug-free control cell cultures was used as the reference. […] Antiviral assays using MAGI-CCR5 cells (MAGI assay) were conducted as previously reported[16],[39]. Single-round virus infection assays using TZM-bl cells infected with R5-HIV-1s (HIV-1YU2, HIV-1KP-5pc, and HIV-1KP-5mvcR)[10] were also conducted as previously described.

[1] = system: Transmitter/founder (T/F) HIV-1 viruses; test: MAGI assay, all four T/F viruses (range); settings: Human immunodeficiency virus 1, MAGI, read-out: IC50 values (range over four T/F viruses)
Text: as §1
MAGI-CCR5 cells[18] were maintained in DMEM supplemented with 10% fetal calf serum (FCS: Gemini Bio-Products, West Sacramento, CA), 200 μg/ml G418, 100 μg/ml hygromycin B, and 100 μg/ml zeomycin. The Chinese hamster ovary (CHO) cells expressing CCR5[19] were maintained in Ham’s F-12 medium (GIBCO-BRL, Rockville, MD) supplemented with 10% FCS, 50 U/ml penicillin, and 50 μg/ml streptomycin in the presence of 5 μg/ml blasticidin S hydrochloride. TZM-bl cells were obtained from the NIH AIDS Reagent Program, and were cultured in DMEM with 10% FCS. […]
Antiviral assays using PHA-PBMCs (p24 assay) were conducted as previously reported[16],[38]. […] The amount of p24 antigens produced by the cells was determined on day 7 in the culture via a commercially available ELISA kit (PerkinElmer). […]

R5-HIV-1Ba-L = test: MAGI assay using MAGI/CCR5 cells and R5-HIV-1Ba-L; settings: Human immunodeficiency virus 1, BAL, Ba-L (MAGI)
Protocol: (§4) MAGI-CCR5 cells[18] were maintained in DMEM supplemented with 10% fetal calf serum (FCS: Gemini Bio-Products, West Sacramento, CA), 200 μg/ml G418, 100 μg/ml hygromycin B, and 100 μg/ml zeomycin. The Chinese hamster ovary (CHO) cells expressing CCR5[19] were maintained in Ham’s F-12 medium (GIBCO-BRL, Rockville, MD) supplemented with 10% FCS, 50 U/ml penicillin, and 50 μg/ml streptomycin in the presence of 5 μg/ml blasticidin S hydrochloride. TZM-bl cells were obtained from the NIH AIDS Reagent Program, and were cultured in DMEM with 10% FCS. Peripheral blood mononuclear cells (PBMCs) were isolated from buffy coats of HIV-1 seronegative individuals, and were activated with 10 μg/ml phytohemagglutinin (PHA) prior to use[16]. A laboratory wild-type R5-HIV-1 strain (HIV-1Ba-L)[37] was employed for drug susceptibility assays. AD101 (experimental CCR5 inhibitor) and VVC-resistant HIV clones[7],[8] were provided by Dr. John P. Moore of Cornell University for this study. The clones were propagated with activated PBMCs, and were used for the assays. A clinical HIV-1 strain, HIV-1KP-5pc, and an MVC-resistant isolate, HIV-1KP-5mvcR, were prepared and used for antiviral assays, as previously described[10],[38]. The following reagents (plasmids) for T/F HIV-1 viruses[22],[24] were obtained through the NIH AIDS Reagent Program, Division of AIDS, NIAID, NIH: pCH040.c/2625 (cat# 11740), pCH106.c/2633 (cat# 11743), pTHRO.c/2626 (cat# 11745), and pCH058.c/2960 (cat# 11856), from Dr. John Kappes and Dr. Christina Ochsenbauer.
as §3

pCH040.c/2625 = test: MAGI assay, T/F HIV-1 clone pCH040.c/2625; settings: Human immunodeficiency virus 1, MAGI
Text: as §1, §2, §3

pCH0.6.c/2633 = test: MAGI assay, T/F HIV-1 clone pCH0.6.c/2633; settings: Human immunodeficiency virus 1, MAGI
Text: as §1, §2, §3

HIV-1KP-5pc = test: TZM-bl single-round infection assay, HIV-1KP-5pc; settings: Human immunodeficiency virus 1, TZM-bl
Protocol: as §4, §3

pTHRO.c/2626 = test: MAGI assay, T/F HIV-1 clone pTHRO.c/2626; settings: Human immunodeficiency virus 1, MAGI
Text: as §1, §2, §3

SMILES: C=CCN(C(=O)OCc1ccc([N+](=O)[O-])cc1)C1CC2CCC(C1)N2CCC(C)(CN(C)S(=O)(=O)c1ccccc1)c1ccccc1 (stereo not drawn) [GRL-117C]
- IC50 (pCH058.c/2960): 3.2 ± 1 nM
- IC50 [1]: 1.9 to 3.2 nM
- IC50 (R5-HIV-1Ba-L): 0.6 nM
- IC90 (R5-HIV-1Ba-L): 8.9 nM
- IC50 (pCH040.c/2625): 2 ± 0.6 nM
- IC50 (pCH0.6.c/2633): 1.9 ± 0.3 nM
- IC90 (HIV-1KP-5pc): 767 nM
- IC50 (HIV-1KP-5pc; KP-5pc, drug-sensitive clinical strain, TZM-bl assay, mean ± SD): 160 ± 30 nM
- IC50 (pTHRO.c/2626): 2.1 ± 0.2 nM

Source: publication PMC6423129, “Activity and structural analysis of GRL-117C: a novel small molecule CCR5 inhibitor active against R5-tropic HIV-1s” (Scientific Reports, 2019)
